From ChEMBL document CHEMBL1133775, “Potent and selective indolomorphinan antagonists of the kappa-opioid receptor” (J Med Chem, 2000)

Assays:
[1] = target: Kappa-type opioid receptor (Cavia porcellus) (UniProt P41144); test: Opioid receptor kappa 1 Antagonism (100 nM) is expressed as (Ke = [antagonist] / (IC50 ratio -1); format: functional
[2] = target: Kappa-type opioid receptor (Rattus norvegicus, UniProt P34975); test: Binding affinity on HEK293 cells transiently transfected with plasmids encoding the rat Opioid receptor kappa 1; format: cell-based
Sequence of Kappa-type opioid receptor (P34975 whole entry): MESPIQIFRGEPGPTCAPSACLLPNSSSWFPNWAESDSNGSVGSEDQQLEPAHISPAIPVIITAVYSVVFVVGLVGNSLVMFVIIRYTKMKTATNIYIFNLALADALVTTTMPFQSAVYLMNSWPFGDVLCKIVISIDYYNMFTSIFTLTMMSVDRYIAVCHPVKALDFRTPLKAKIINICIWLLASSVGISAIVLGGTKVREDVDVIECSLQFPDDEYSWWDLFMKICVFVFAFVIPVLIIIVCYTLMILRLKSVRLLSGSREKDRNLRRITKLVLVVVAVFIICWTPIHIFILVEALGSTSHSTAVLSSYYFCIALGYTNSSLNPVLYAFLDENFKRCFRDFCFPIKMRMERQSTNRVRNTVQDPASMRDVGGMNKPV

[3] = target: Mu-type opioid receptor (Cavia porcellus) (UniProt P97266); test: Opioid receptor mu 1 Antagonism (100 nM) is expressed as (Ke = [antagonist] / (IC50 ratio -1); format: functional
Sequence of Mu-type opioid receptor (Cavia porcellus) (P97266 whole entry): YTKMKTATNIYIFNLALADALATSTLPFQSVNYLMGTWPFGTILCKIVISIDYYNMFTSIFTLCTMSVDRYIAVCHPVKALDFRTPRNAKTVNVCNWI

Mu-type opioid receptor = Mu-type opioid receptor (Rattus norvegicus, UniProt P33535); test: Binding affinity on HEK293 cells transiently transfected with plasmids encoding the rat Opioid receptor mu 1; format: cell-based
Sequence of Mu-type opioid receptor (P33535 whole entry): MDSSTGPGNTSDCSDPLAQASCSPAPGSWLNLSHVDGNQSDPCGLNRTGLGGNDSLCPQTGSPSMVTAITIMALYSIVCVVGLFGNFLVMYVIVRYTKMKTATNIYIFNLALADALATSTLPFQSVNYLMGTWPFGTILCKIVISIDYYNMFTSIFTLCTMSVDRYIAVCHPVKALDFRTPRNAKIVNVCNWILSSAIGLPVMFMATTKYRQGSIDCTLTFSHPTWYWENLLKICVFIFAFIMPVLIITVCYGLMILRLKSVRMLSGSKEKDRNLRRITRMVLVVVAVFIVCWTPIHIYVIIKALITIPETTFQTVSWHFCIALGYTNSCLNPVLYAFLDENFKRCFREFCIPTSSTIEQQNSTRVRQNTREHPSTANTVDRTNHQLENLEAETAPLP

[4] = target: Delta-type opioid receptor (Rattus norvegicus, UniProt P33533); test: Binding affinity on HEK293 cells transiently transfected with plasmids encoding the rat Opioid receptor delta 1; format: cell-based
Sequence of Delta-type opioid receptor (P33533 whole entry): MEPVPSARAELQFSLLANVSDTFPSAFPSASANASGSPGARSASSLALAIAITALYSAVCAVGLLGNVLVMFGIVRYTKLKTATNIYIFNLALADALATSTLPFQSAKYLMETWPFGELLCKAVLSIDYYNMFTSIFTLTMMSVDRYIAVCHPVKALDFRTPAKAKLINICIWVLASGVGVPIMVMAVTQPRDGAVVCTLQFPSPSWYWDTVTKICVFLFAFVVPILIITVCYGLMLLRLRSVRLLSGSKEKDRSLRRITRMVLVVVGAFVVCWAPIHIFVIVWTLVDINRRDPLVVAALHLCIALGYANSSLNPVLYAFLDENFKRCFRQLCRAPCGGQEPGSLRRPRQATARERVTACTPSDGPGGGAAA

[5] = target: Kappa-type opioid receptor (Cavia porcellus) (UniProt P41144); test: Ratio of the IC50 of Kappa receptor agonist, ethylketazocine in the presence of compound in GPI divided by the control IC50.; format: functional
[6] = target: Delta-type opioid receptor (Mus musculus) (UniProt P32300); test: Ratio of the IC50 of delta receptor agonist, [D-Ala-2, D-Leu5]-enkephalin in the presence of compound in MVD divided by the control IC50.; format: functional
Sequence of Delta-type opioid receptor (Mus musculus) (P32300 whole entry): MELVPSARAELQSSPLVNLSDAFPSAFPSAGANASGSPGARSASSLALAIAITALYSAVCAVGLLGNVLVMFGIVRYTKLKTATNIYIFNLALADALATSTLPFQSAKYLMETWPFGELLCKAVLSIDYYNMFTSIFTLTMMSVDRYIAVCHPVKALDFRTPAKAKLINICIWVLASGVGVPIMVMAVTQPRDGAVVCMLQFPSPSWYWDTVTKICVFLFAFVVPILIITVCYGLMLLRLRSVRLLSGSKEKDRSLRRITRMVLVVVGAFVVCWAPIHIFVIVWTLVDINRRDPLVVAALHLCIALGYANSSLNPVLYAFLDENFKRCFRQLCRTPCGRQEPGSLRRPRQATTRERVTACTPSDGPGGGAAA

[7] = Selectivity ratio, ratio of Ke value of mu to kappa opioid receptor
[8] = target: T1, Opioid receptors; delta & kappa (Homo sapiens) (UniProt P41145+P41143); test: Selectivity ratio, ratio of binding affinity of delta to kappa opioid receptor; format: protein assay
T1 sequence (P41143 whole entry, looked up): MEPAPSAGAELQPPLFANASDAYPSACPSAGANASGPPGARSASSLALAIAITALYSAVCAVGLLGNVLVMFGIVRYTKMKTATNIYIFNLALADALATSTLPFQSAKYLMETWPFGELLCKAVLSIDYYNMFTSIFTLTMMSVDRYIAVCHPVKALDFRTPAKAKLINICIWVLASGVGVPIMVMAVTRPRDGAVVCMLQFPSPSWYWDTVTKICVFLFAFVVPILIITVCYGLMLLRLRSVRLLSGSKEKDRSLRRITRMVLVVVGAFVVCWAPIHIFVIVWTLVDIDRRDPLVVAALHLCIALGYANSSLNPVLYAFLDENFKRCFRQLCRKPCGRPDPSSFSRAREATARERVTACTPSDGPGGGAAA
T1 sequence (P41145 whole entry, looked up): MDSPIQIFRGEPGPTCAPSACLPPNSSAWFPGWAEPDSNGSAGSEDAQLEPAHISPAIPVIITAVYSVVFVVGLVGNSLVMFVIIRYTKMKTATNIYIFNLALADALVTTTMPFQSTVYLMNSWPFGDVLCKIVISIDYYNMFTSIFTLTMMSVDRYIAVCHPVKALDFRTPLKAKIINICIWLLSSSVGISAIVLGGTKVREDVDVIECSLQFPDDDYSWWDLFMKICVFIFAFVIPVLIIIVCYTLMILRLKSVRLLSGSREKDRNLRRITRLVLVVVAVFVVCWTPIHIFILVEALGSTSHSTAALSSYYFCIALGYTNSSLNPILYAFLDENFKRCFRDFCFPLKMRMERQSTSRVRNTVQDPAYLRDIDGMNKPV

[9] = target: T2, Opioid receptors; mu & kappa (Homo sapiens) (UniProt P41145+P35372); test: Selectivity ratio, ratio of binding affinity of mu to kappa opioid receptor; format: protein assay
T2 sequence (P35372 whole entry, looked up): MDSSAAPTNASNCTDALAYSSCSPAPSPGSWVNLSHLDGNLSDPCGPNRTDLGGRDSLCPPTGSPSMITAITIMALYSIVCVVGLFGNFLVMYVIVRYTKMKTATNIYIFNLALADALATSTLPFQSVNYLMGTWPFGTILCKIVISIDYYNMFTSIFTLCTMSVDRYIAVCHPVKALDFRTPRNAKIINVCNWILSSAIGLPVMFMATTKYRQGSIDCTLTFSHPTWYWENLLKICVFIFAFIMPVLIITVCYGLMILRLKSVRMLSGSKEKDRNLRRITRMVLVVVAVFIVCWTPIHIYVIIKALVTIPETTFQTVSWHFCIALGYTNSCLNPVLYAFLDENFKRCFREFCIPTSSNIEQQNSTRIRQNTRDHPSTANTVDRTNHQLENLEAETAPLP
T2 sequence (P41145 whole entry, looked up): as the sequence (P41145 whole entry, looked up) above

[10] = Selectivity ratio, ratio of Ke value of Kappa to Delta opioid receptor
[11] = target: Mu-type opioid receptor (Cavia porcellus) (UniProt P97266); test: Ratio of the IC50 of mu receptor agonist, Morphine in the presence of compound in GPI divided by the control IC50.; format: functional
[12] = target: T2, Opioid receptors; mu & kappa (Homo sapiens); test: Selectivity ratio, ratio of Ke value of Kappa to mu opioid receptor; format: protein assay
[13] = target: T1, Opioid receptors; delta & kappa (Homo sapiens); test: Selectivity ratio, ratio of Ke value of Kappa to Delta opioid receptor (extrapolated value); format: protein assay
[14] = target: T1, Opioid receptors; delta & kappa (Homo sapiens); test: Selectivity ratio, ratio of Ke value of delta to kappa opioid receptor; format: protein assay
[15] = target: T1, Opioid receptors; delta & kappa (Homo sapiens); test: Selectivity ratio, ratio of Ke value of kappa to delta opioid receptor (extrapolated value); format: protein assay
[16] = target: Delta-type opioid receptor (Mus musculus) (UniProt P32300); test: Opioid receptor delta 1 Antagonism (100 nM) is expressed as (Ke = [antagonist] / (IC50 ratio -1); format: functional

Sequence of Kappa-type opioid receptor (Cavia porcellus) (P41144 whole entry): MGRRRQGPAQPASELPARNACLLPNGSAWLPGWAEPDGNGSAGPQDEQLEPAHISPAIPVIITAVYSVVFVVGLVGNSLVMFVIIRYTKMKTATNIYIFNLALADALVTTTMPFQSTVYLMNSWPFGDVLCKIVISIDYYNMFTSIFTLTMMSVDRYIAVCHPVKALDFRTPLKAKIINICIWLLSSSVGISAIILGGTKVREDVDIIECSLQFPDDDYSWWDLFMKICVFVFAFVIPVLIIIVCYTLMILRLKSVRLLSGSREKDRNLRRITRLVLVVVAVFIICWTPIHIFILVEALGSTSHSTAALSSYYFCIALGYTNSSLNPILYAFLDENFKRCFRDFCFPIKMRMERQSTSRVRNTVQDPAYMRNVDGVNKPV

Row | Compound | Ke [1] [nM] | Ki [2] [µM] | Ke [3] [nM] | Ki (Mu-type opioid receptor) [µM] | Ki [4] [µM] | IC50 ratio [5] | IC50 ratio [6] | Ratio [7] | Ratio [8] | Ratio [9] | Ratio [10] | IC50 ratio [11] | Ratio [12] | Ratio [13] | Ratio [14] | Ratio [15] | Ke [16] [nM]
1 | N=C(N)NCc1ccc2[nH]c3c(c2c1)C[C@@]1(O)[C@H]2Cc4ccc(O)c5c4[C@@]1(CCN2CC1CC1)[C@H]3O5 | 0.6 | 0.000745 | 11 | 0.066 | 0.0308 | 172 | 0.88 | 19 | 41 | 89 | 172 | 10.3 | – | – | – | – | –
2 | NCCc1ccc2[nH]c3c(c2c1)C[C@@]1(O)C2Cc4ccc(O)c5c4[C@@]1(CCN2CC1CC1)[C@H]3O5 | 2.1 | – | – | – | – | 48.1 | 2.3 | – | – | – | 21 | 3.2 | 15 | – | – | – | –
3 | N=C(N)/N=C(\N)Nc1ccc2[nH]c3c(c2c1)C[C@@]1(O)C2Cc4ccc(O)c5c4[C@@]1(CCN2CC1CC1)[C@H]3O5 | 0.2 | – | 14 | – | – | 512 | 0.41 | 74 | 478 | 95 | 512 | 7.9 | – | – | – | – | –
4 | N=C(N)Nc1ccc2[nH]c3c(c2c1)C[C@@]1(O)[C@H]2Cc4ccc(O)c5c4[C@@]1(CCN2CC1CC1)[C@H]3O5 [GUANIDINONALTRINDOLE] | – | 0.00018 | – | 0.0225 | 0.0462 | – | – | 193 | 257 | 125 | – | – | – | 366 | – | – | –
5 | Nc1ccc2[nH]c3c(c2c1)C[C@@]1(O)C2Cc4ccc(O)c5c4[C@@]1(CCN2CC1CC1)[C@H]3O5 | – | – | 57 | – | – | 4 | 10.3 | – | – | – | 0.4 | 2.8 | 1.5 | – | – | – | –
6 | CN1CC[C@]23c4c5ccc(O)c4O[C@H]2c2[nH]c4ccc(N=C(N)N)cc4c2C[C@@]3(O)C1C5 | – | 0.00283 | – | 0.876 | > 10 | – | – | – | – | – | – | – | – | – | – | – | –
7 | CN(C)Cc1ccc2[nH]c3c(c2c1)C[C@@]1(O)C2Cc4ccc(O)c5c4[C@@]1(CCN2CC1CC1)[C@H]3O5 | 0.8 | 0.000823 | 9.8 | 0.036 | 0.0157 | 125 | 1.4 | 12 | 19 | 44 | 87 | 11.2 | – | – | – | – | –
8 | CC(=N)Nc1ccc2[nH]c3c(c2c1)C[C@@]1(O)C2Cc4ccc(O)c5c4[C@@]1(CCN2CC1CC1)[C@H]3O5 | 1 | – | 16 | – | – | 99.4 | 1.9 | 15 | – | – | 52 | 7.5 | – | – | – | – | –
9 | N/C(S)=N/c1ccc2[nH]c3c(c2c1)C[C@@]1(O)C2Cc4ccc(O)c5c4[C@@]1(CCN2CC1CC1)[C@H]3O5 | 7.2 | – | 38 | – | – | 14.9 | 1.3 | 5.3 | – | – | 12 | 3.6 | – | – | – | – | –
10 | N#CN/C(N)=N/c1ccc2[nH]c3c(c2c1)C[C@@]1(O)C2Cc4ccc(O)c5c4[C@@]1(CCN2CC1CC1)[C@H]3O5 | – | – | – | – | – | 33 | 12 | 5.1 | 2 | 20 | – | 7.2 | – | – | 2.9 | – | –
11 | N=C(N)Cc1ccc2[nH]c3c(c2c1)C[C@@]1(O)C2Cc4ccc(O)c5c4[C@@]1(CCN2CC1CC1)[C@H]3O5 | 2.2 | 0.000214 | – | 0.0408 | 0.033 | 46.7 | 1.8 | – | – | – | 26 | 2.1 | – | – | – | – | –
12 | N=C(N)N=C(N)Nc1ccc2[nH]c3c(c2c1)C[C@@]1(O)C2Cc4ccc(O)c5c4[C@@]1(CCN2CC1CC1)[C@H]3O5 | – | 0.000226 | – | 0.0215 | 0.108 | – | – | – | – | – | – | – | – | – | – | – | –
13 | CC(=N)NCc1ccc2[nH]c3c(c2c1)C[C@@]1(O)C2Cc4ccc(O)c5c4[C@@]1(CCN2CC1CC1)[C@H]3O5 | 6.1 | – | 8.8 | – | – | 17.3 | 0.88 | 1.4 | – | – | 17.3 | 12.4 | – | – | – | – | –
14 | CSC(=N)Nc1ccc2[nH]c3c(c2c1)C[C@@]1(O)C2Cc4ccc(O)c5c4[C@@]1(CCN2CC1CC1)[C@H]3O5 | 0.5 | – | 16 | – | – | 43.6 | 1.9 | 33 | – | – | – | 7.4 | – | 115 | – | – | –
15 | C[N+](C)(C)CCc1ccc2[nH]c3c(c2c1)C[C@@]1(O)C2Cc4ccc(O)c5c4[C@@]1(CCN2CC1CC1)[C@H]3O5 | 0.4 | – | 5.7 | – | – | 48 | 2.5 | 13 | – | – | – | 18.5 | – | – | – | 96 | –
16 | NCc1ccc2[nH]c3c(c2c1)C[C@@]1(O)C2Cc4ccc(O)c5c4[C@@]1(CCN2CC1CC1)[C@H]3O5 | 34 | – | 61 | – | – | 3.9 | 6.4 | 1.8 | – | – | – | 2.6 | – | – | 0.5 | – | 18
17 | Oc1ccc2c3c1O[C@H]1c4[nH]c5c(c4C[C@@]4(O)[C@@H](C2)N(CC2CC2)CC[C@]314)C[C@@]1(O)[C@H]2Cc3ccc(O)c4c3[C@@]1(CCN2CC1CC1)[C@H]5O4 [NORBINALTORPHIMINE] | – | 0.000244 | – | – | 0.0415 | – | – | – | – | – | – | – | – | – | – | – | –
18 | CN1CC[C@]23c4c5ccc(O)c4O[C@H]2c2[nH]c4ccc(NC(=N)N)cc4c2C[C@@]3(O)C1C5 | 17 | – | – | – | – | 6.8 | 1.7 | – | > 3530 | 310 | 4.1 | 1.1 | 6.3 | – | – | – | –
19 | N=C(N)NCCc1ccc2[nH]c3c(c2c1)C[C@@]1(O)[C@H]2Cc4ccc(O)c5c4[C@@]1(CCN2CC1CC1)[C@H]3O5 | 1.7 | 0.000507 | 12 | 0.0334 | 0.0107 | 59.8 | 30.1 | 7.3 | 21 | 66 | – | 9.1 | – | – | 2 | – | 3.4
20 | N#CN/C(N)=N/Cc1ccc2[nH]c3c(c2c1)C[C@@]1(O)C2Cc4ccc(O)c5c4[C@@]1(CCN2CC1CC1)[C@H]3O5 | 2.9 | – | 18 | – | – | 35.4 | 17.9 | 6.2 | – | – | – | 6.7 | – | – | 2 | – | 5.9
21 | CN(C)c1ccc2[nH]c3c(c2c1)C[C@@]1(O)C2Cc4ccc(O)c5c4[C@@]1(CCN2CC1CC1)[C@H]3O5 | 6.8 | – | 36 | – | – | 15.8 | 2.4 | 5.3 | – | – | 6.6 | 3.8 | – | – | – | – | –
22 | N=C(N)c1ccc2[nH]c3c(c2c1)C[C@@]1(O)C2Cc4ccc(O)c5c4[C@@]1(CCN2CC1CC1)[C@H]3O5 | 0.7 | 0.000529 | 16 | 0.0657 | 0.112 | 142 | 0.3 | 22 | – | – | 142 | 7.2 | – | – | – | – | –
23 | C[N+](C)(C)c1ccc2[nH]c3c(c2c1)C[C@@]1(O)C2Cc4ccc(O)c5c4[C@@]1(CCN2CC1CC1)[C@H]3O5 | 3.1 | – | – | – | – | 33.3 | 3.6 | – | – | – | 9.1 | 2.7 | 13 | – | – | – | –
24 | N#CN=C(N)Nc1ccc2[nH]c3c(c2c1)C[C@@]1(O)C2Cc4ccc(O)c5c4[C@@]1(CCN2CC1CC1)[C@H]3O5 | – | 0.00446 | – | 0.0898 | 0.00946 | – | – | – | – | – | – | – | – | – | – | – | –
25 | CC(=N)NCCc1ccc2[nH]c3c(c2c1)C[C@@]1(O)C2Cc4ccc(O)c5c4[C@@]1(CCN2CC1CC1)[C@H]3O5 | 0.3 | – | 7.6 | – | – | 72.1 | 6.4 | 27 | – | – | – | 14.1 | – | – | 65 | – | –
26 | C[N+](C)(C)Cc1ccc2[nH]c3c(c2c1)C[C@@]1(O)C2Cc4ccc(O)c5c4[C@@]1(CCN2CC1CC1)[C@H]3O5 | 0.7 | 0.000354 | 4 | 0.0128 | 0.0784 | 154 | 0.79 | 6.2 | 221 | 36 | 154 | 25.8 | – | – | – | – | –
27 | CN(C)CCc1ccc2[nH]c3c(c2c1)C[C@@]1(O)C2Cc4ccc(O)c5c4[C@@]1(CCN2CC1CC1)[C@H]3O5 | 3.2 | – | – | – | – | 32 | 1.8 | – | – | – | 18 | 2.4 | 13 | – | – | – | –
